Results as given in US12534496B2, “Polymorphic forms of Cyclo (-His-Pro) and methods of use to treat kidney disease” (NovMetaPharma Co., Ltd., priority 2018, dated 2026).
“Also recorded” adds a separate entry of the source.

Assays:
Type in all cases: physicochemical
[1] = 1-week stability assessment (40 °C/75% RH, 80 °C, ambient light; XRPD, HPLC purity)
Protocol: XRPD analysis was carried out on a sample of 5 g of CHP Hydrate. The sample was weighed in a glass vial, and 6 mL of a 90:10 ethanol/water mixture was added to make a slurry. The mixture was then agitated for approximately 24 hours at ambient temperature and then analyzed by XRPD. […] XPRD analysis was carried out to assess any change in the form of the material.

[2] = Vacuum oven heating of Pattern 2 (XRPD)
Protocol: i. 80° C. Heating of Pattern 2 • Ca. 2.2 g of pattern 2 material (prepared as per Section 5.6.1) was placed inside a vacuum oven set to 50° C.; • After 1 hour, a sample was taken and analyzed by XRPD; • Vial was returned to the vacuum oven and the temperature increased to 60° C.; • After 30 minutes, a sample was taken and analyzed by XRPD; • Vial was returned to the vacuum oven and the temperature increased to 80° C.; • After 18 hours at 80° C., a sample was taken and analyzed by XRPD; ii. Fast Rotary Evaporation in Ethanol/DCM • 1 g of received CHP pattern 1 was weighed in to a round bottom flask and dissolved in 40 mL of ethanol; • Once the solid had dissolved, 2 mL of dichloromethane was pipetted into the flask; • The flask was then attached to a rotary evaporator and fast evaporated at ambient temperature under vacuum; • A pale beige solid was recovered an analyzed by XRPD. 7. pH Solubility Assessment

[3] = GMP stability study of CHP anhydrate and CHP hydrate under accelerated conditions (total impurities); conditions: for Growth of total Impurities: 40 °C/75% RH
Protocol: CHP anhydrate (Pattern 1) and hydrate (Pattern 2) compounds were manufactured under GMP conditions. A stability study for the CHP anhydrate compound was conducted under ccelerated conditions (40±5° C./75±5% RH) for six months and room temperature conditions (25±5° C./60±5% RH) for 12 months. A further stability study for the CHP hydrate compound was conducted under accelerated conditions (40±5° C./75±5% RH) for 6 months (Table 18).

[4] = Variable temperature and humidity XRPD (VT-/VH-XRPD)
Protocol: VT-/VH-XRPD analysis was carried out on a Philips X'Pert ProMultipurpose diffractometer equipped with a temperature and humidity chamber. The samples were scanned between 4 and 35.99° 2θ using Cu K radiation (α1λ=1.54060 Å; α2=1.54443 Å; β=1.39225 Å; α1:α2 ratio=0.5) running in Bragg-Brentano geometry (step size 0.008° 2θ) using 40 kV/40 mA generator settings. Measurements were performed at each step of the humidity profile below:
Program: 40% RH/ambient temperature—initial scan
• 0% RH/ambient temperature—initial scan, 1-hour hold, scan • 0% RH/80° C.—initial scan, 20-minute hold, scan • 0% RH/80° C.—initial scan, 80-minute hold, scan 11. High Performance Liquid Chromatography-Ultraviolet Detection (HPLC-UV) Instrument: Dionex Ultimate 3000 Column: LC/168 X-Bridge Phenyl Column (150 mm×4.6 mm×3.5 μm) Column Temperature: 30° C. Autosampler Temperature: 5° C. UV wavelength: 220 nm Injection Volume: 5 μL Flow Rate: 1 ml/min Mobile Phase A: 10 mM Ammonium acetate Mobile Phase B: Acetonitrile Diluent: 0.1% TFA in water Gradient program: […]

[5] = 1-week stability assessment (40 °C/75% RH, 80 °C, ambient light; XRPD, HPLC purity); remark: listed apart in the source
[6] = Solubility of CHP hydrate (Pattern 2) in water/acetone

Structure (SMILES): O=C1N[C@@H](Cc2cnc[nH]2)C(=O)N2CCC[C@@H]12 [Pattern 2, Pyrrolo [1,2-a]pyrazine-1,4-dione, hexahydro-3-(1H-imidazol-5-ylmethyl)-, hydrate (1:1), (3S, 8aS)-]
- XRPD form after storage ([1]; 7 days at 40 °C/75% RH): No change in form
- XRPD form after storage ([1]; 7 days at 40 °C/75% RH, listed as pattern 2): remain as pattern 2
- XRPD form after storage ([1]; 7 days at 40 °C/75% RH, listed as pattern 2 CHP): remained as pattern 2
- XRPD form after storage ([1]; 7 days at 80 °C): convert to pattern 1
- XRPD form after storage ([1]; 7 days at 80 °C, listed as pattern 2): dehydration from pattern 2 to pattern 1
- XRPD form after storage ([1]; 7 days at 80 °C, listed as pattern 2 CHP): converted to pattern 1
- XRPD form after storage ([1]; 7 days in ambient light): No change in form
- XRPD form after storage ([1]; 7 days in ambient light, listed as pattern 2): remain as pattern 2
- XRPD form after storage ([1]; 7 days in ambient light, listed as pattern 2 CHP): remained as pattern 2
- XRPD form after heating ([2]; oven 80 °C, additional 18 hours): mixture of Pattern 1 and 2
- XRPD form after heating ([2]; vacuum oven 50 °C, 1 hour): predominately Pattern 2 with some Pattern 1 peaks
- XRPD form after heating ([2]; vacuum oven, further 30 minutes (1.5 hour in total)): predominantly Pattern 2 with some Pattern 1 peaks
- Growth of total Impurities ([3]; 0M): 0%
- Growth of total Impurities ([3]; 1M): 0%
- Growth of total Impurities ([3]; 3M, listed as CHP hydrate (pattern 2)): 0.00%
- Growth of total Impurities ([3]; 6M, listed as CHP hydrate (pattern 2)): 0.05%
- Quality changes during stability study ([3]; accelerated conditions for 6 months): no significant quality changes
- VT/VH-XRPD Identity ([4]; Run 1: 40% RH, ambient temperature): stable; also recorded: Pattern 2 was present
- VT/VH-XRPD Identity ([4]; Run 1: 40% RH, ambient temperature, listed as CHP Pattern 2): Pattern 2
- VT/VH-XRPD Identity ([4]; Run 2: 0% RH, ambient temperature, 1-hour hold): remains as Pattern 2; also recorded: Pattern 2 remained
- VT/VH-XRPD Identity ([4]; Run 2: 0% RH, ambient temperature, 1-hour hold, listed as CHP Pattern 2): Pattern 2
- VT/VH-XRPD Identity ([4]; Run 2: 0% RH, ambient temperature, 1-hour hold, listed as CHP pattern 2): Pattern 2 input material remained
- VT/VH-XRPD Identity ([4]; Run 3: 0% RH, 80 °C, 20-minute hold): converted Pattern 2 to Pattern 1; also recorded: pure Pattern 1
- VT/VH-XRPD Identity ([4]; Run 3: 0% RH, 80 °C, 20-minute hold, listed as CHP Pattern 2): Pattern 1
- VT/VH-XRPD Identity ([4]; Run 3: 0% RH, 80 °C, 20-minute hold, listed as CHP pattern 2): changed form which was assigned as pure pattern 1
- VT/VH-XRPD Identity ([4]; Run 4: 0% RH, 80 °C, 80-minute hold): pure Pattern 1 remained
- VT/VH-XRPD Identity ([4]; Run 4: 0% RH, 80 °C, 80-minute hold, listed as CHP Pattern 2): Pattern 1
- VT/VH-XRPD Identity ([4]; Run 4: 0% RH, 80 °C, 80-minute hold, listed as CHP pattern 2): Pure pattern 1 remained
- Purity after 1 week ([5]; HPLC, 40 °C/75% RH): 99.5%
- Purity after 1 week ([5]; HPLC, 80 °C): 99.4%
- Purity after 1 week ([5]; HPLC, Ambient): 99.5%
- Purity of starting material ([5]; HPLC, before storage): 99.5%
- Change in HPLC purity after 7 days ([5]; all conditions (40 °C/75% RH, 80 °C, ambient light)): no drop in purity; also recorded: No change in purity
- solubility ([6]; water/acetone 0/10 (v/v), 50 °C, organic solvent or mixture): 14 mg/mL
- solubility ([6]; water/acetone 0.5/9.5 (v/v), 50 °C, organic solvent or mixture): 49 mg/mL
- solubility ([6]; water/acetone 1/9 (v/v), 5 °C, organic solvent or mixture): 48 mg/mL
- solubility ([6]; water/acetone 1/9 (v/v), 50 °C, organic solvent or mixture): 159 mg/mL
- solubility ([6]; water/acetone 2/8 (v/v), 5 °C, organic solvent or mixture): 110 mg/mL
- solubility ([6]; water/acetone 4/6 (v/v), 5 °C, organic solvent or mixture): 179 mg/mL
- solubility ([6]; water/acetone 6/4 (v/v), 5 °C, aqueous with cosolvent or surfactant or cyclodextrin): 206 mg/mL
- solubility ([6]; water/acetone 8/2 (v/v), 5 °C, aqueous with cosolvent or surfactant or cyclodextrin): > 200 mg/mL
- solubility ([6]; water/acetone 9/1 (v/v), 5 °C, aqueous with cosolvent or surfactant or cyclodextrin): 215 mg/mL
- solubility ([6]; water/acetone, 5 °C, organic solvent or mixture, water/acetone 0/10 (v/v)): 17 mg/mL
- solubility ([6]; water/acetone, 5 °C, organic solvent or mixture, water/acetone 0.5/9.5 (v/v)): 19 mg/mL
- solubility ([6]; water/acetone, 50 °C, aqueous with cosolvent or surfactant or cyclodextrin, water/acetone 6/4 (v/v)): > 200 mg/mL
- solubility ([6]; water/acetone, 50 °C, aqueous with cosolvent or surfactant or cyclodextrin, water/acetone 8/2 (v/v)): > 200 mg/mL
- solubility ([6]; water/acetone, 50 °C, aqueous with cosolvent or surfactant or cyclodextrin, water/acetone 9/1 (v/v)): > 200 mg/mL
- solubility ([6]; water/acetone, 50 °C, organic solvent or mixture, water/acetone 2/8 (v/v)): > 200 mg/mL
- solubility ([6]; water/acetone, 50 °C, organic solvent or mixture, water/acetone 4/6 (v/v)): > 200 mg/mL
